# How the values were obtained:
# Assay type in all cases: physicochemical
# [1] = Dynamic Vapor Sorption (DVS); conditions: for Change in Mass (%)-ref Desorption / Change in Mass (%)-ref Sorption / Change in Mass (%)-ref Hysteresis: DVS; for Change in Mass (%)-ref Desorption / Change in Mass (%)-ref Sorption: 25° C.
# Description: Approximately, 10-20 mg of sample was placed into a mesh vapor sorption balance pan and loaded into a DVS Intrinsic dynamic vapor sorption balance by Surface Measurement Systems. The sample was subjected to a ramping profile from 40-90% relative humidity (RH) at 10% increments, maintaining the sample at each step until a stable weight had been achieved (dm/dt 0.004%, minimum step length 30 minutes, maximum step length 500 minutes) at 25° C. After completion of the sorption cycle, the sample was dried using the same procedure to 0% RH and then a second sorption cycle back to 40% RH. Two cycles were performed. The weight change during the sorption/desorption cycles were plotted, allowing for the hygroscopic nature of the sample to be determined. XRPD analysis was then carried out on any solid retained. The above technique was used to generate the images in FIG. 5, FIG. 6, FIG. 47 and FIG. 48.
# [2] = Thermodynamic solubility in water at pH 4.2
# Description: Thermodynamic solubility was carried out for Pattern 1, Pattern 2/6 mixture, Pattern 3, amorphous di-HCl salts and Pattern 7 in water at pH 4.2. All samples were prepared at 30 mg/mL. Initial observations were made. The samples were agitated at ambient temperature for ca. 24 hours. The samples were collected and observations made. Observed solids were isolated via centrifugation. The mother liquor from the filtered sample was analyzed by HPLC. The pH 4.3 solution was prepared by diluting glacial acetic acid (11.6 mL) to 100 mL in deionized water, then adding sodium acetate (1.07 g) and acetic acid solution (5.9 mL) preparing up to 500 mL with deionized water; then the pH was adjusted to 4.2. The above technique was used to generate the images in FIG. 60.
# [3] = Dynamic Vapor Sorption (DVS); conditions: Cycle 3, sorption, 25° C.
compound,measurement,setting,value
"CN1CCN(c2ccc(Nc3ncc4cc5n(c4n3)C3(CCCCC3)CNC5=O)nc2)CC1 [Pattern 3, 2′-((5-(4-methylpiperazin-1-yl)pyridin-2-yl)amino)-7′,8′-dihydro-6′H-spiro[cyclohexane-1,9′-pyrazino[1′,2′:1,5]pyrrolo[2,3-d]pyrimidin]-6′-one]",Change in Mass (%)-ref Desorption,"[1]; Cycle 1, desorption, target RH 0%",0.000%
same,Change in Mass (%)-ref Desorption,"[1]; Cycle 1, desorption, target RH 10%",0.863%
same,Change in Mass (%)-ref Desorption,"[1]; Cycle 1, desorption, target RH 20%",1.274%
same,Change in Mass (%)-ref Desorption,"[1]; Cycle 1, desorption, target RH 30%",1.818%
same,Change in Mass (%)-ref Desorption,"[1]; Cycle 1, desorption, target RH 40%",2.223%
same,Change in Mass (%)-ref Desorption,"[1]; Cycle 1, desorption, target RH 50%",2.491%
same,Change in Mass (%)-ref Desorption,"[1]; Cycle 1, desorption, target RH 60%",2.727%
same,Change in Mass (%)-ref Desorption,"[1]; Cycle 1, desorption, target RH 70%",2.940%
same,Change in Mass (%)-ref Desorption,"[1]; Cycle 1, desorption, target RH 80%",3.171%
same,Change in Mass (%)-ref Desorption,"[1]; Cycle 1, desorption, target RH 90%",3.555%
same,Change in Mass (%)-ref Sorption,"[1]; Cycle 1, sorption, target RH 40%",2.516%
same,Change in Mass (%)-ref Sorption,"[1]; Cycle 1, sorption, target RH 50%",2.780%
same,Change in Mass (%)-ref Sorption,"[1]; Cycle 1, sorption, target RH 60%",2.970%
same,Change in Mass (%)-ref Sorption,"[1]; Cycle 1, sorption, target RH 70%",3.115%
same,Change in Mass (%)-ref Sorption,"[1]; Cycle 1, sorption, target RH 80%",3.288%
same,Change in Mass (%)-ref Sorption,"[1]; Cycle 1, sorption, target RH 90%",3.555%
same,Change in Mass (%)-ref Hysteresis,"[1]; Cycle 1, target RH 40%",−0.292%
same,Change in Mass (%)-ref Hysteresis,"[1]; Cycle 1, target RH 50%",−0.289%
same,Change in Mass (%)-ref Hysteresis,"[1]; Cycle 1, target RH 60%",−0.242%
same,Change in Mass (%)-ref Hysteresis,"[1]; Cycle 1, target RH 70%",−0.175%
same,Change in Mass (%)-ref Hysteresis,"[1]; Cycle 1, target RH 80%",−0.117%
same,Change in Mass (%)-ref Desorption,"[1]; Cycle 2, desorption, target RH 0%",0.075%
same,Change in Mass (%)-ref Desorption,"[1]; Cycle 2, desorption, target RH 10%",0.885%
same,Change in Mass (%)-ref Desorption,"[1]; Cycle 2, desorption, target RH 20%",1.290%
same,Change in Mass (%)-ref Desorption,"[1]; Cycle 2, desorption, target RH 30%",1.711%
same,Change in Mass (%)-ref Desorption,"[1]; Cycle 2, desorption, target RH 40%",1.977%
same,Change in Mass (%)-ref Desorption,"[1]; Cycle 2, desorption, target RH 50%",2.171%
same,Change in Mass (%)-ref Desorption,"[1]; Cycle 2, desorption, target RH 60%",2.337%
same,Change in Mass (%)-ref Desorption,"[1]; Cycle 2, desorption, target RH 70%",2.510%
same,Change in Mass (%)-ref Desorption,"[1]; Cycle 2, desorption, target RH 80%",2.717%
same,Change in Mass (%)-ref Desorption,"[1]; Cycle 2, desorption, target RH 90%",3.093%
same,Change in Mass (%)-ref Sorption,"[1]; Cycle 2, sorption, target RH 0%",0.000%
same,Change in Mass (%)-ref Sorption,"[1]; Cycle 2, sorption, target RH 10%",0.831%
same,Change in Mass (%)-ref Sorption,"[1]; Cycle 2, sorption, target RH 20%",1.198%
same,Change in Mass (%)-ref Sorption,"[1]; Cycle 2, sorption, target RH 30%",1.468%
same,Change in Mass (%)-ref Sorption,"[1]; Cycle 2, sorption, target RH 40%",1.853%
same,Change in Mass (%)-ref Sorption,"[1]; Cycle 2, sorption, target RH 50%",2.092%
same,Change in Mass (%)-ref Sorption,"[1]; Cycle 2, sorption, target RH 60%",2.271%
same,Change in Mass (%)-ref Sorption,"[1]; Cycle 2, sorption, target RH 70%",2.461%
same,Change in Mass (%)-ref Sorption,"[1]; Cycle 2, sorption, target RH 80%",2.700%
same,Change in Mass (%)-ref Sorption,"[1]; Cycle 2, sorption, target RH 90%",3.093%
same,Change in Mass (%)-ref Hysteresis,"[1]; Cycle 2, target RH 10%",0.054%
same,Change in Mass (%)-ref Hysteresis,"[1]; Cycle 2, target RH 20%",0.091%
same,Change in Mass (%)-ref Hysteresis,"[1]; Cycle 2, target RH 30%",0.243%
same,Change in Mass (%)-ref Hysteresis,"[1]; Cycle 2, target RH 40%",0.124%
same,Change in Mass (%)-ref Hysteresis,"[1]; Cycle 2, target RH 50%",0.080%
same,Change in Mass (%)-ref Hysteresis,"[1]; Cycle 2, target RH 60%",0.066%
same,Change in Mass (%)-ref Hysteresis,"[1]; Cycle 2, target RH 70%",0.050%
same,Change in Mass (%)-ref Hysteresis,"[1]; Cycle 2, target RH 80%",0.018%
same,Change in Mass (%)-ref Sorption,"[1]; Cycle 3, sorption, target RH 10%",0.861%
same,Change in Mass (%)-ref Sorption,"[1]; Cycle 3, sorption, target RH 20%",1.198%
same,Change in Mass (%)-ref Sorption,"[1]; Cycle 3, sorption, target RH 40%",1.757%
same,moisture adsorbed (DVS),"[1]; at 40% RH, listed as Pattern 3 scale-up",2.5 wt %
same,moisture adsorbed (DVS),[1]; at 60% RH,3.1 wt %
same,mass increase by DVS,[1]; at 90% RH,ca. 4%
same,moisture adsorbed (DVS),"[1]; at 90% RH, listed as Pattern 3 scale-up",3.5 wt %
same,mass increase by DVS,[1]; between 0% and 90% RH,4%
same,Observations at T = 24 hours,"[2]; 30 mg/mL in water at pH 4.2, agitated at ambient temperature ca. 24 hours",Yellow solution
same,Observations at T = 0 hours,"[2]; 30 mg/mL in water at pH 4.2, ambient temperature, T = 0 hours",Yellow solution (dissolved
same,Change in Mass (%)-ref Sorption,[3]; target RH 0%,0.075%
same,Change in Mass (%)-ref Sorption,[3]; target RH 30%,1.443%

# From US12534472B2, “Morphic forms of trilaciclib and methods of manufacture thereof” (Pharmacosmos Holding A/S, priority 2020, dated 2026)
